According to PubChem BioAssay (NCI):
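Compound exposure: 48 hours, 5 concentrations, 96-well plates. GI50 is the concentration that inhibits growth by half. Definition used: TGI = concentration required for complete inhibition of growth.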

Tests used:
Test in all cases: inhibition of tumour cell growth, NCI panel, 48 h
RXF 393 renal = system: RXF 393 renal
A498 renal = system: A498 renal
NCI-H23 lung = system: NCI-H23 lung
NCI-H226 lung = system: NCI-H226 lung
IGROV1 ovarian = system: IGROV1 ovarian
MOLT-4 leukemia = system: MOLT-4 leukemia
MCF7 breast = system: MCF7 breast
DU-145 prostate = system: DU-145 prostate
NCI/ADR-RES ovarian = system: NCI/ADR-RES ovarian
A549 NSCLC = system: A549 NSCLC

Work on `N#Cc1nn(-c2cc(=O)[nH]c3ccc(Br)cc23)c(N)c1C#N` yielded a GI50 (RXF 393 renal) greater than 100 µM, a TGI (RXF 393 renal) greater than 100 µM and a GI50 (A498 renal) greater than 100 µM. It also gave a TGI (A498 renal) greater than 100 µM, a GI50 (NCI-H23 lung) of 51.5 µM and a TGI (NCI-H23 lung) greater than 100 µM. The GI50 (NCI-H226 lung) was greater than 100 µM, the TGI (NCI-H226 lung) was greater than 100 µM and the GI50 (IGROV1 ovarian) was 37.9 µM. It also gave a TGI (IGROV1 ovarian) greater than 100 µM, a GI50 (MOLT-4 leukemia) greater than 100 µM and a TGI (MOLT-4 leukemia) greater than 100 µM. It also gave a GI50 (MCF7 breast) of 64.1 µM, a TGI (MCF7 breast) greater than 100 µM and a GI50 (DU-145 prostate) greater than 100 µM. For the same compound, the TGI (DU-145 prostate) was greater than 100 µM, the GI50 (NCI/ADR-RES ovarian) was greater than 100 µM and the TGI (NCI/ADR-RES ovarian) was greater than 100 µM. For the same compound, the GI50 (A549 NSCLC) was greater than 100 µM and the TGI (A549 NSCLC) was greater than 100 µM.
For `Cc1ccc(C2=NN(c3ccc(S(N)(=O)=O)cc3)C(c3cn(-c4ccccc4)nc3-c3ccccc3)C2)cc1` (stereo not given), the GI50 (RXF 393 renal) was 3.81 µM, the TGI (RXF 393 renal) was 17.8 µM and the GI50 (A498 renal) was 1.84 µM. The TGI (A498 renal) was 5.19 µM, the GI50 (NCI-H23 lung) was 14.1 µM and the TGI (NCI-H23 lung) was greater than 100 µM. It also gave a GI50 (NCI-H226 lung) of 30.7 µM, a TGI (NCI-H226 lung) greater than 100 µM and a GI50 (IGROV1 ovarian) of 28.3 µM. The TGI (IGROV1 ovarian) was greater than 100 µM, the GI50 (MOLT-4 leukemia) was 3.72 µM and the TGI (MOLT-4 leukemia) was greater than 100 µM. It also gave a GI50 (MCF7 breast) of 3.19 µM, a TGI (MCF7 breast) greater than 100 µM and a GI50 (DU-145 prostate) of 67.9 µM. For the same compound, the TGI (DU-145 prostate) was greater than 100 µM, the GI50 (NCI/ADR-RES ovarian) was 11.1 µM and the TGI (NCI/ADR-RES ovarian) was greater than 100 µM. It also gave a GI50 (A549 NSCLC) of 6.75 µM and a TGI (A549 NSCLC) greater than 100 µM.
With `O=[N+]([O-])c1cc2c(c([N+](=O)[O-])c1)Nc1ccccc1O2` the GI50 (RXF 393 renal) was 7.35 µM, the TGI (RXF 393 renal) was 46.3 µM and the GI50 (A498 renal) was 1.73 µM. For the same compound, the TGI (A498 renal) was 9.34 µM, the GI50 (NCI-H23 lung) was 2.78 µM and the TGI (NCI-H23 lung) was 87.2 µM. For the same compound, the GI50 (NCI-H226 lung) was 5.97 µM, the TGI (NCI-H226 lung) was greater than 100 µM and the GI50 (IGROV1 ovarian) was 7.58 µM. For the same compound, the TGI (IGROV1 ovarian) was greater than 100 µM, the GI50 (MOLT-4 leukemia) was 6.22 µM and the TGI (MOLT-4 leukemia) was greater than 100 µM. The GI50 (MCF7 breast) was 4.96 µM, the TGI (MCF7 breast) was greater than 100 µM and the GI50 (DU-145 prostate) was 7.32 µM. It also gave a TGI (DU-145 prostate) greater than 100 µM, a GI50 (NCI/ADR-RES ovarian) of 3.41 µM and a TGI (NCI/ADR-RES ovarian) of 55.4 µM. For the same compound, the GI50 (A549 NSCLC) was 5.51 µM and the TGI (A549 NSCLC) was 60.4 µM.
With `C=C(CN(C)C)C(=O)c1ccc(Oc2ccccc2)cc1` the TGI (RXF 393 renal) was 7.17 µM, the TGI (A498 renal) was 42.1 µM and the TGI (NCI-H23 lung) was 24.9 µM. The TGI (NCI-H226 lung) was 34.3 µM, the TGI (IGROV1 ovarian) was 30.8 µM and the TGI (MOLT-4 leukemia) was 2.05 µM. For the same compound, the TGI (MCF7 breast) was 15.6 µM, the TGI (DU-145 prostate) was 27.6 µM and the TGI (NCI/ADR-RES ovarian) was greater than 100 µM. For the same compound, the TGI (A549 NSCLC) was 42.6 µM.
`CC#CC(=O)N1CC[C@@H](n2c(=O)n(-c3ccc(Oc4ccccc4)cc3)c3c(N)ncnc32)C1` was tested, and the GI50 (RXF 393 renal) was 37.3 µM, the TGI (RXF 393 renal) was greater than 100 µM and the GI50 (A498 renal) was 6.38 µM. For the same compound, the TGI (A498 renal) was 44.6 µM, the GI50 (NCI-H23 lung) was 36.8 µM and the TGI (NCI-H23 lung) was greater than 100 µM. For the same compound, the GI50 (NCI-H226 lung) was 23.1 µM, the TGI (NCI-H226 lung) was greater than 100 µM and the GI50 (IGROV1 ovarian) was 15.2 µM. For the same compound, the TGI (IGROV1 ovarian) was 60.8 µM, the GI50 (MOLT-4 leukemia) was 10.2 µM and the TGI (MOLT-4 leukemia) was 62.1 µM. For the same compound, the GI50 (MCF7 breast) was 23.5 µM, the TGI (MCF7 breast) was greater than 100 µM and the GI50 (DU-145 prostate) was 33.5 µM. The TGI (DU-145 prostate) was greater than 100 µM, the GI50 (NCI/ADR-RES ovarian) was 24.2 µM and the TGI (NCI/ADR-RES ovarian) was greater than 100 µM. It also gave a GI50 (A549 NSCLC) of 55 µM and a TGI (A549 NSCLC) greater than 100 µM.
`Clc1ccc2c(NCCNc3nc(N4CCCC4)nc4ccccc34)ccnc2c1` gave a GI50 (RXF 393 renal) of 1.23 µM, a TGI (RXF 393 renal) of 2.63 µM and a GI50 (A498 renal) of 1.8 µM. It also gave a TGI (A498 renal) of 3.4 µM, a GI50 (NCI-H23 lung) of 2.05 µM and a TGI (NCI-H23 lung) of 5.22 µM. It also gave a GI50 (NCI-H226 lung) of 1.95 µM, a TGI (NCI-H226 lung) of 4.06 µM and a GI50 (IGROV1 ovarian) of 1.65 µM. It also gave a TGI (IGROV1 ovarian) of 4.6 µM, a GI50 (MOLT-4 leukemia) of 0.538 µM and a TGI (MOLT-4 leukemia) of 5.1 µM. For the same compound, the GI50 (MCF7 breast) was 0.156 µM, the TGI (MCF7 breast) was 3.86 µM and the GI50 (DU-145 prostate) was 1.17 µM. For the same compound, the TGI (DU-145 prostate) was 2.73 µM, the GI50 (NCI/ADR-RES ovarian) was 2.78 µM and the TGI (NCI/ADR-RES ovarian) was 11.1 µM. The GI50 (A549 NSCLC) was 0.29 µM and the TGI (A549 NSCLC) was 2.54 µM.
